Where a name gives a salt, the structure may show the parent alone.

The target in assay [1] is T1, hNav1.7 (Homo sapiens (Human), UniProt Q15858). Put plainly: Tritiated compound binding to membranes from cells expressing hNav1.7 and the β1 subunit, competitive binding (LBA, Ex. 243A). To be noted: 100 pM [3H]compound, 18 h, room temperature. How it is done: Tritiated Compound Binding to Membranes Isolated from Cells that Heterologously Express hNav1.7 and the β1 Subunit
Preparation of membranes containing recombinantly expressed sodium channels: Frozen recombinant cell pellets were thawed on ice and diluted to 4 times the cell pellet weight with ice cold 50 mM Tris HCl, pH 7.4 buffer. The cell suspensions were homogenized on ice using a motorized glass dounce homogeniser. Homogenates were further diluted 8.4 times with ice cold 50 mM Tris HCl, pH 7.4 buffer and then centrifuged at 200×g at 4° C. for 15 min. The supernatants were collected and centrifuged at 10000×g at 4° C. for 50 min. […] The homogenized membranes were then processed through a syringe equipped with a 26 gauge needle. Protein concentrations were determined by Bradford Assay and the membranes were stored at −80° C.
Radioligand Binding Studies: Saturation experiments. A competitive NaV1.7 inhibitor having a methyl group was tritiated. Three tritiums were incorporated in place of methyl hydrogens to generate [^3H]compound. Binding of this radioligand was performed in 5 mL borosilicate glass test tubes at room temperature. […] Non-specific binding was determined in the presence of 1 μM unlabeled compound. After 18h, the reactants were filtered through GF/C glass fiber filters presoaked in 0.5% w/v polyethylene imine. […] [^3H]compound bound to filters was quantified by liquid scintillation counting.
Competitive binding experiments: Binding reactions were performed in 96-well polypropylene plates at room temperature for 18h. In 360 μL, membranes were incubated with 100 pM [^3H]compound and increasing concentrations of Test Compound. Non-specific binding was defined in the presence of 1 μM unlabeled compound. Reactions were transferred and filtered through 96-well glass fiber/C filter plates presoaked with 0.5% polyethylene imine. The filtered reactions were washed 5 times with 200 μL ice cold buffer containing 0.25% BSA. Bound radioactivity was determined by liquid scintillation counting.
Data Analysis: For saturation experiments, non-specific binding was subtracted from total binding to provide specific binding and these values were recalculated in terms of pmol ligand bound per mg protein. Saturation curves were constructed and dissociation constants were calculated using the single site ligand binding model: Beq=(Bmax*X)/(X+Kd), where Beq is the amount of ligand bound at equilibrium, Bmax is the maximum receptor density, Kd is the dissociation constant for the ligand, and X is the free ligand concentration. For competition studies percent inhibition was determined and IC50 values were calculated using a 4 parameter logistic model (% inhibition=(A+((B−A)/(1+((x/C)^D)))) using XLfit, where A and B are the maximal and minimum inhibition respectively, C is the IC50 concentration and D is the (Hill) slope.
Target sequence in this assay (Q15858 whole entry, looked up): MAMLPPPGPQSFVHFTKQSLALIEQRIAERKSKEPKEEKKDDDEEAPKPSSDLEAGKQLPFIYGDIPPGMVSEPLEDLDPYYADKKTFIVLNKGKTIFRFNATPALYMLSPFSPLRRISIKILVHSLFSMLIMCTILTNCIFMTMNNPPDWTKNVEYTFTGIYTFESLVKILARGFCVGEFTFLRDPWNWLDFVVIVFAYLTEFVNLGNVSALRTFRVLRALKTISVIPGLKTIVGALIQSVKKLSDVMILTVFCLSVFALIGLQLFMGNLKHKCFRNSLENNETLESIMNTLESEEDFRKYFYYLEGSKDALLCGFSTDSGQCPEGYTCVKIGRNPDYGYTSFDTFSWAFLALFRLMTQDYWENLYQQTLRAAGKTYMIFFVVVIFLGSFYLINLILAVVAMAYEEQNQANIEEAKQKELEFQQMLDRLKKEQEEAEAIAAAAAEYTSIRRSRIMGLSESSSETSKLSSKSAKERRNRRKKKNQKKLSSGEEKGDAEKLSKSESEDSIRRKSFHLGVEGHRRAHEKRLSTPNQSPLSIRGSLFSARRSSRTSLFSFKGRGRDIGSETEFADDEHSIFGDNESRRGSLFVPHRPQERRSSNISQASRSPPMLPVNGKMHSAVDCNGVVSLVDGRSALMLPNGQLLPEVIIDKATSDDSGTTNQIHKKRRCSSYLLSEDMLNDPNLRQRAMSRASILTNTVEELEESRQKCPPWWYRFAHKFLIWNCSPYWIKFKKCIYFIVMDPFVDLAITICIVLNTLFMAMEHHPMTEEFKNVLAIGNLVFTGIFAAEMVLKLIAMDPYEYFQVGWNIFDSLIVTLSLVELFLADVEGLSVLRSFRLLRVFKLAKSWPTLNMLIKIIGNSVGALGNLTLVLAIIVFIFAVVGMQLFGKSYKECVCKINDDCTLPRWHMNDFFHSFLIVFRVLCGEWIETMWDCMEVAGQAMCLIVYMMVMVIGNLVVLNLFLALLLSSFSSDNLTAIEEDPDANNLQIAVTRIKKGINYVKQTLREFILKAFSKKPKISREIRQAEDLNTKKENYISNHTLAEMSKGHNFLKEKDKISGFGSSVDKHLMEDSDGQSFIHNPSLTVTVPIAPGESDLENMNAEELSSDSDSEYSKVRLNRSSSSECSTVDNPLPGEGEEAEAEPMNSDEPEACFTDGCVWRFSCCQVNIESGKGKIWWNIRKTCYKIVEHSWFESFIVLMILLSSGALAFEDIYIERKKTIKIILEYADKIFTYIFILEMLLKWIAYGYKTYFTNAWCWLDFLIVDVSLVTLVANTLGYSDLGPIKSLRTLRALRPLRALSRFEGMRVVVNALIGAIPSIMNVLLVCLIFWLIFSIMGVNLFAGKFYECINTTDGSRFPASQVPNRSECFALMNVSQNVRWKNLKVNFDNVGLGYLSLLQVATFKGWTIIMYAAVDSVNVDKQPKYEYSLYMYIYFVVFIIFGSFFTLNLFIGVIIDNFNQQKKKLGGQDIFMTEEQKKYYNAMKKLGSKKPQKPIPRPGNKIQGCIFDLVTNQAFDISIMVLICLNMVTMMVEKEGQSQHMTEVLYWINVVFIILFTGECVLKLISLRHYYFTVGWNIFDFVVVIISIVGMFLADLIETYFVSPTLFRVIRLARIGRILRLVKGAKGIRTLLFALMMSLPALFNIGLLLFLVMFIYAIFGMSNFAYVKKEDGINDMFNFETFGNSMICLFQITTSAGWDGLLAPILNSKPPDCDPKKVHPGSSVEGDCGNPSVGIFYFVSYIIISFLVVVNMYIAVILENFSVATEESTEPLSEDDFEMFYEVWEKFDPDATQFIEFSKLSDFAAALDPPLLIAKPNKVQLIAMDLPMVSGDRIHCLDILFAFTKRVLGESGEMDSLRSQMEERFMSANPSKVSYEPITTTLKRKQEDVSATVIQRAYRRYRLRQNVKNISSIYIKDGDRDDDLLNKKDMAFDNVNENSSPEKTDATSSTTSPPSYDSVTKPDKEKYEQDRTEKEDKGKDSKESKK
Target sequence in this assay (Q07699 whole entry partner, looked up): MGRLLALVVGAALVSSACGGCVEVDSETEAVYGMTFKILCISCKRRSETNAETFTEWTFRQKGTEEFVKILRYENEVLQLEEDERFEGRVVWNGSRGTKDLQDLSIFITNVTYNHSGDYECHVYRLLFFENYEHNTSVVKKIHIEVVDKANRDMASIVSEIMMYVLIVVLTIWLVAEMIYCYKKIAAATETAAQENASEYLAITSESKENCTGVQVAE

The target of assay [2] is T1, hNav1.7. Put plainly: Patch voltage clamp electrophysiology assay (EP), Syncropatch 384PE, CHO cells expressing Nav1.7. The note with it: holding potential -50 mV; […] compound incubation; read-out: EP_SP hNav1.7 (Ex. 243B) IC50. It is filed as cell-based. The essentials: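 Automated whole-cell patch clamp on CHO cells stably expressing human Nav1.7, CsCl/EGTA internal and NMDG/80 mM Na+ external (pH 7.4). From −50 mV holding, −10 mV step, 20 ms recovery at −150 mV, then second −10 mV pulse where block is measured; inhibition after 7.5 min compound incubation.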
(In patch-clamp work, channel activity is measured electrically.)
Target sequence in this assay (Q15858 other isoform, or with tags, fused parts or gaps): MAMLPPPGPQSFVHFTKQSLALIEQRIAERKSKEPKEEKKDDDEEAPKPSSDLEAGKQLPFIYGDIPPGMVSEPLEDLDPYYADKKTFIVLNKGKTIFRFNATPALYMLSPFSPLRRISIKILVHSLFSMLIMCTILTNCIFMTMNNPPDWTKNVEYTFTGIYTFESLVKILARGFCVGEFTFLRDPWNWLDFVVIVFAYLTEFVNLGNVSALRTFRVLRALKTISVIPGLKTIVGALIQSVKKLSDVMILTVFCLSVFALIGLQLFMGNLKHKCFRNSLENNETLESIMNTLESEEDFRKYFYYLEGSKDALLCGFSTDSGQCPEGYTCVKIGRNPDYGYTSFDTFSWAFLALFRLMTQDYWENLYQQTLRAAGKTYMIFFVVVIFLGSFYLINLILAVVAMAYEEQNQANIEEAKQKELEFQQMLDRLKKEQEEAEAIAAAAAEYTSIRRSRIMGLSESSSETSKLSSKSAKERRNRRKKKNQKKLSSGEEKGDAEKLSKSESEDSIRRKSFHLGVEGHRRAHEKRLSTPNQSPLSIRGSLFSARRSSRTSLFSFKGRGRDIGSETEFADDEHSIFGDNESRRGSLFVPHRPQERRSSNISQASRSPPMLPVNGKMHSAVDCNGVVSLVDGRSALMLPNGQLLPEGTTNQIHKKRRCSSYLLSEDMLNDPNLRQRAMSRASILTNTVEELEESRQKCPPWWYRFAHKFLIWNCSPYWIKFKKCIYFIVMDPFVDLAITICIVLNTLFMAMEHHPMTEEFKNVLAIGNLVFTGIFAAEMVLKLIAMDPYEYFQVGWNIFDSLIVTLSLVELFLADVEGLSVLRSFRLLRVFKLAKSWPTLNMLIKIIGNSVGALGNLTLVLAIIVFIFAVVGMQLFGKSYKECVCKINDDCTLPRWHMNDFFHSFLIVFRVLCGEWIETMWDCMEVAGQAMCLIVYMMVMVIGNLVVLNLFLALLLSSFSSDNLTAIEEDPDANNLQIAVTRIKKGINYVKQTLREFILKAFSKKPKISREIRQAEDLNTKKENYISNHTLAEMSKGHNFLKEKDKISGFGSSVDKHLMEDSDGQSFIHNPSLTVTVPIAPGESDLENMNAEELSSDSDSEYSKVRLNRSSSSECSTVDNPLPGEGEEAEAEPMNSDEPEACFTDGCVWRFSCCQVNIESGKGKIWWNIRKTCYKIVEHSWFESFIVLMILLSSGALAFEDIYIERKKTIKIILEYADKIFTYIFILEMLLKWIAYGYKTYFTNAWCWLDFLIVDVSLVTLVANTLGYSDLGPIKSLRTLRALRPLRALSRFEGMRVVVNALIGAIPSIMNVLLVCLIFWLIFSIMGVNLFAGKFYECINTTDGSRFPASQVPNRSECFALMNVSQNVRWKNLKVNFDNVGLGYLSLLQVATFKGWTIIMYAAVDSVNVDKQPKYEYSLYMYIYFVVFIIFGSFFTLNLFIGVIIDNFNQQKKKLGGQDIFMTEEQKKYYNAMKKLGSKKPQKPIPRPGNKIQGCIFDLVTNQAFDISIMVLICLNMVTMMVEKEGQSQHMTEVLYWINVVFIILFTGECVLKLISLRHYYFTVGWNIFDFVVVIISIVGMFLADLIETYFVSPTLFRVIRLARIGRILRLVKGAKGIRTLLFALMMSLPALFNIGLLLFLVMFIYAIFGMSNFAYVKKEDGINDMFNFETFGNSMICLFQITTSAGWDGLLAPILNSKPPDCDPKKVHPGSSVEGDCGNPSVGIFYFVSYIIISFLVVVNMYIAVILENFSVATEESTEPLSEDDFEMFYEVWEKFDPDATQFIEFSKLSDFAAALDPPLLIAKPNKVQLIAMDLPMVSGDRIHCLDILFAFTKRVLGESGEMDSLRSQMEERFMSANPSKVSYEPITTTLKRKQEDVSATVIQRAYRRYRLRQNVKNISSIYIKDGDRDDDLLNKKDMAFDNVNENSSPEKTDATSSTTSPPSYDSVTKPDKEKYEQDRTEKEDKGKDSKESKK

Assay [3] concerns the target T1, hNav1.7. Nature of the assay: Tritiated compound binding to membranes from cells expressing hNav1.7 and the β1 subunit, modified protocol (LBA, Ex. 243B). The note with it: 300 pM [3H]compound, room temperature, read-out: Nav1.7 LBA (Ex. 243B) IC50.
Target sequence in this assay (Q15858 whole entry, looked up): as the sequence (Q15858 whole entry, looked up) above
Target sequence in this assay (Q07699 whole entry partner, looked up): as the sequence (Q07699 whole entry partner, looked up) above
[4] abbreviates: read-out: Nav1.7 LBA (Ex. 243A) IC50.

For the compound `O=S(=O)(Nc1nccs1)c1cc(Cl)c(N[C@H]2CCCC[C@@H]2N2CC(O)C2)cc1F` [Example 47, 5-chloro-2-fluoro-4-(((1 S,2S)-2-(3-hydroxyazetidin-1-yl)cyclohexyl)amino)-N-(thiazol-2-yl)benzenesulfonamide], the IC50 in assay [1] (setting [4]) was determined as 529 nM.
Consider `CCN(Cc1ccccc1)[C@H]1CCCC[C@@H]1Nc1cc(F)c(S(=O)(=O)Nc2nccs2)cc1Cl` [Example 6, 4-(((1S,2S)-2-(benzyl(ethyl)amino)cyclohexyl)amino)-5-chloro-2-fluoro-N-(thiazol-2-yl)benzenesulfonamide], for which the IC50 in assay [1] (read-out: Nav1.7 (LBA) (Ex. 243A)) came out at 994 nM.
On to `O=S(=O)(Nc1cccc(F)n1)c1cc(Cl)c(N[C@@H]2CCCC[C@H]2N2CCCC2)cc1F` [Example 98, 5-chloro-2-fluoro-N-(6-fluoropyridin-2-yl)-4-(((1R,2R)-2-(pyrrolidin-1-yl)cyclohexyl)amino)benzenesulfonamide], for which the IC50 in assay [1] (setting [4]) was 3000 nM.
The same measure, in the same setting: next, `CN(C)[C@H]1C[C@H](C(F)(F)F)CC[C@@H]1Nc1cc(F)c(S(=O)(=O)Nc2nccs2)cc1Cl` [Example 77, 5-chloro-4-(((1S,2S,4R)-2-(dimethylamino)-4-(trifluoromethyl)cyclohexyl)amino)-2-fluoro-N-(thiazol-2-yl)benzenesulfonamide]: 43.2 nM; `CC(C)N(C)[C@H]1CCCC[C@@H]1Nc1cc(F)c(S(=O)(=O)Nc2nccs2)cc1Cl` [Example 33, 5-chloro-2-fluoro-4-(((1S,2S)-2-(isopropyl(methyl)amino)cyclohexyl)amino)-N-(thiazol-2-yl)benzenesulfonamide]: 82.4 nM; `O=S(=O)(Nc1ccncn1)c1cc(Cl)c(N[C@H]2CCCC[C@@H]2N2CCC(O)C2)cc1F` (stereo partly drawn) [Example 61, 5-chloro-2-fluoro-4-(((1S,2S)-2-(3-hydroxypyrrolidin-1-yl)cyclohexyl)amino)-N-(pyrimidin-4-yl)benzenesulfonamide]: 558 nM.
With `N#C[C@H]1CCN([C@H]2CCCC[C@@H]2Nc2cc(F)c(S(=O)(=O)Nc3nccs3)cc2Cl)C1` [Example 162, 5-Chloro-4-(((1S,2S)-2-((S)-3-cyanopyrrolidin-1-yl)cyclohexyl)amino)-2-fluoro-N-(thiazol-2-yl)benzenesulfonamide formate], the IC50 in assay [2] was found to be 8.55 nM; in assay [3] it was 248 nM.
In the case of `CN1CC(C(=O)N(C)[C@H]2CCCC[C@@H]2Nc2cc(F)c(S(=O)(=O)Nc3nccs3)cc2Cl)C1` [Example 179, N-((1S,2S)-2-((2-Chloro-5-fluoro-4-(N-(thiazol-2-yl)sulfamoyl)phenyl)amino)cyclohexyl)-N,1-dimethylazetidine-3-carboxamide], the IC50 amounted to 6.83 nM in assay [2] and 270 nM in assay [3].
On the same counts, the results for `CN(C1CNC1)[C@H]1C[C@@H](C(F)(F)F)CC[C@@H]1Nc1cc(F)c(S(=O)(=O)Nc2cccc(F)n2)cc1Cl` [Example 170, 4-(((1S,2S,4S)-2-(azetidin-3-yl(methyl)amino)-4-(trifluoromethyl)cyclohexyl)amino)-5-chloro-2-fluoro-N-(6-fluoropyridin-2-yl)benzenesulfonamide] are 3.68 nM and 2.92 nM.
The corresponding values for `CN1CCC(N(C)[C@H]2CCCC[C@@H]2Nc2cc(F)c(S(=O)(=O)Nc3cccc(F)n3)cc2Cl)CC1` [Example 109, 5-chloro-2-fluoro-N-(6-fluoropyridin-2-yl)-4-(((1S,2S)-2-(methyl(1-methylpiperidin-4-yl)amino)cyclohexyl)amino)benzenesulfonamide] are 8.68 nM and 50.7 nM.
As for “5-chloro-4-(((1S,2S,4S)-4-(3,5-dichlorophenyl)-2-(dimethylamino)cyclohexyl)amino)-2-fluoro-N-(pyrimidin-4-yl)benzenesulfonamide formate [Example 239]”, the results for the IC50 in assay [2] and in assay [3] were 1.5 nM and 2.93 nM, respectively.

(Values after patent publication US10457654B2 (GENENTECH, INC., priority 2017, dated 2019).)
